Assay results from the supplement of paper PMC10307832.

Assays:
Experiment in all cases: relative viability (nuclei count vs DMSO), 5 days (fraction); higher = more cells survive
CUDC-101 + Navitoclax = compound: C#Cc1cccc(Nc2ncnc3cc(OC)c(OCCCCCCC(=O)NO)cc23)c1 [CUDC-101] + CC1(C)CCC(c2ccc(Cl)cc2)=C(CN2CCN(c3ccc(C(=O)NS(=O)(=O)c4ccc(N[C@H](CCN5CCOCC5)CSc5ccccc5)c(S(=O)(=O)C(F)(F)F)c4)cc3)CC2)C1 [Navitoclax] (partner 0.5 µM)
Procedure, shortened: (§1)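 Lung cancer cell lines were seeded in 1536-well plates and dosed by pin tool the next day, with either a single drug or a fixed anchor-drug dose combined with five library-drug doses (not always all listed) spaced in √10 steps. Five days later, one step fixed the cells and stained their nuclei (final 0.05% Triton X-100, 1% formaldehyde, 1 ug/ml Hoechst), and nuclei were counted on 4× images. Relative viability is the nuclei count in treated wells divided by the count in vehicle wells, and each value is the median of duplicate plates.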

[1] = compound: C1=CC=C2C(=C1)N=C(S2)C(C#N)C3=NC(=NC=C3)NCCC4=CN=CC=C4 + CCNC(=O)c1noc(-c2cc(C(C)C)c(O)cc2O)c1-c1ccc(CN2CCOCC2)cc1 [Luminespib] (partner 0.01 µM)
Procedure, shortened: as §1

Vandetanib + Navitoclax = compound: COc1cc2/c(=N/c3ccc(Br)cc3F)nc[nH]c2cc1OCC1CCN(C)CC1 [Vandetanib] + CC1(C)CCC(c2ccc(Cl)cc2)=C(CN2CCN(c3ccc(C(=O)NS(=O)(=O)c4ccc(N[C@H](CCN5CCOCC5)CSc5ccccc5)c(S(=O)(=O)C(F)(F)F)c4)cc3)CC2)C1 [Navitoclax] (partner 0.5 µM)
Procedure, shortened: as §1

Vandetanib + Bortezomib = compound: COc1cc2/c(=N/c3ccc(Br)cc3F)nc[nH]c2cc1OCC1CCN(C)CC1 [Vandetanib] + CC(C)C[C@H](NC(=O)[C@H](Cc1ccccc1)NC(=O)c1cnccn1)B(O)O [Bortezomib] (partner 0.002 µM)
Procedure, shortened: as §1

Cell Line	relative viability (CUDC-101 + Navitoclax; first compound 0.01 µM)	relative viability (CUDC-101 + Navitoclax; first compound 0.03162 µM)	relative viability (CUDC-101 + Navitoclax; first compound 0.1 µM)	relative viability (CUDC-101 + Navitoclax; first compound 0.3162 µM)	relative viability (CUDC-101 + Navitoclax; first compound 1 µM)	relative viability ([1]; first compound 0.005 µM)	relative viability ([1]; first compound 0.01581 µM)	relative viability ([1]; first compound 0.05 µM)	relative viability ([1]; first compound 0.1581 µM)	relative viability ([1]; first compound 0.5 µM)	relative viability (Vandetanib + Navitoclax; first compound 0.02 µM)	relative viability (Vandetanib + Navitoclax; first compound 0.06325 µM)	relative viability (Vandetanib + Navitoclax; first compound 0.2 µM)	relative viability (Vandetanib + Navitoclax; first compound 0.6325 µM)	relative viability (Vandetanib + Navitoclax; first compound 2 µM)	relative viability (Vandetanib + Bortezomib; first compound 0.02 µM)	relative viability (Vandetanib + Bortezomib; first compound 0.06325 µM)	relative viability (Vandetanib + Bortezomib; first compound 0.2 µM)	relative viability (Vandetanib + Bortezomib; first compound 0.6325 µM)	relative viability (Vandetanib + Bortezomib; first compound 2 µM)
EMC-BAC-2	1.15	1.19	1.19	1.1	0.923	0.766	1.32	1.11	1.28	1.03	1.11	1.11	0.76	1.12	1.06	1.02	1.04	1.01	1.03	1.04
NCI-H1437	1.13	1.07	1.22	1.16	0.931	1.06	1.25	1.12	1.18	1.1	1.03	1.06	1.16	1.08	1.08	0.486	0.56	0.47	0.506	0.398
NCI-H1944	1.02	1.03	1.01	1.09	0.861	0.739	0.854	0.558	0.636	0.759	1	1.05	1.05	1.01	0.86	–	–	–	–	–
NCI-H838	1.23	1.1	1.3	1.21	0.985	0.327	0.368	0.252	0.367	0.273	1.13	1.13	1.15	1.12	1.07	0.73	0.807	0.664	0.706	0.614
HCC-827	1.1	0.66	0.271	0.184	0.167	0.464	0.833	0.579	1.13	0.785	1.04	0.975	0.993	0.464	0.153	1.06	1.02	1.04	0.795	0.495
NCI-H2342	–	–	–	–	–	0.555	0.708	0.794	0.776	0.841	–	–	–	–	–	–	–	–	–	–
LOU-NH91	0.773	0.505	0.473	0.466	0.251	0.274	0.34	0.336	0.333	0.43	0.709	0.561	0.553	0.535	0.445	0.514	0.47	0.535	0.504	0.504
NCI-H3122	0.982	0.987	1.06	1.05	1.06	0.0736	0.0973	0.553	0.0763	0.0863	0.99	0.998	1.03	0.994	1.03	0.978	1.03	1.05	0.953	1
NCI-H1563	–	–	–	–	–	0.534	0.52	0.507	0.553	0.552	–	–	–	–	–	0.821	0.807	1.12	0.797	0.845
NCI-H1734	0.959	0.82	0.917	0.911	0.501	–	0.253	0.184	0.185	0.188	0.854	0.766	0.801	0.804	0.818	0.976	0.869	0.944	0.904	0.926
EPLC-272H	1.42	1.2	1.15	0.871	0.59	0.248	0.229	0.169	0.392	0.302	1.06	1.03	1.14	1	1.09	0.983	0.764	0.892	0.995	0.909
RERF-LC-KJ	1.17	1.07	1.21	1.17	0.666	0.935	0.982	1.4	1.18	1.06	0.952	0.746	0.835	1.06	0.605	1.05	0.961	1.05	0.951	0.958
EBC-1	0.41	0.377	0.365	0.184	0.144	–	–	–	–	–	0.36	0.39	0.449	0.366	0.38	0.635	0.559	0.647	0.577	0.505
HARA	1.13	1.16	1.09	1.14	0.837	0.527	0.802	0.452	0.666	0.675	1.1	0.996	1.13	1.07	1.15	1.17	1.07	0.937	1.07	1.05
NCI-H1651	1.13	0.938	1.22	1.04	0.887	0.752	0.647	1.02	1.09	0.705	0.927	1.11	1.08	1.07	0.928	0.915	0.883	0.893	0.897	0.839
